Test results taken from ChEMBL document CHEMBL5120909, “Reshaping an Acyclic Nucleoside Phosphonate into a Selective Anti-hepatitis B Virus Compound” (J Med Chem, 2022).
pEC50: −log10 of the molar value.

Experiments:
Hepatitis B virus = experiment: Antiviral activity against wild type HBV infected in human HepG2 2.2.15 cells assessed as reduction in viral replication pre incubated for 3 days followed by replacement with fresh compounds for another 3 days prior to pronase treatment by RT-qPCR analysis; assay type: functional, organism-based, HepG2.2.15; conditions: for pEC50: HepG2.2.15; for EC90: HepG2.2.15, 144 h, time 6 day
HepG2 2.2.15 [1] = experiment: Cytotoxicity against human HepG2.2.15 cells assessed as reduction in cell viability; assay type: functional
Human betaherpesvirus 5 [2] = experiment: Antiviral activity against HCMV AD-169 infected in HEL cells assessed as reduction in virus plaque formation; assay type: functional, organism-based; conditions: Human betaherpesvirus 5, AD-169, HEL
Human betaherpesvirus 5 [3] = experiment: Antiviral activity against HCMV Davis infected in HEL cells assessed as reduction in virus plaque formation; assay type: functional, organism-based; conditions: Human betaherpesvirus 5, Davis
Human alphaherpesvirus 3 [4] = experiment: Antiviral activity against VZV TK+ infected in HEL cells assessed as reduction in virus plaque formation; assay type: functional, organism-based; conditions: Human alphaherpesvirus 3, TK+
Human alphaherpesvirus 3 [5] = experiment: Antiviral activity against VZV TK- infected in HEL cells assessed as reduction in virus plaque formation; assay type: functional, organism-based; conditions: Human alphaherpesvirus 3, TK-
[6] = Cytotoxicity against human HEL cells assessed as change in cell morphology measured after 3 days […]; assay type: toxicity, cell-based; conditions: time 3 day
[7] = Cytotoxicity against human HEL cells assessed as reduction in cell growth measured after 3 days by coulter counting method; assay type: toxicity, cell-based; conditions: time 3 day
[8] = tested on: Human immunodeficiency virus 1; experiment: Anti-HIV activity against wild type HIV-1 IIIB infected in human MT4 cells assessed as inhibition of HIV-induced cytopathic effect measured after 5 days by MTT assay; assay type: functional, organism-based; conditions: Human immunodeficiency virus 1, IIIB, MT4, 120 h
[9] = tested on: Human immunodeficiency virus 2; experiment: Anti-HIV activity against wild type HIV-2 ROD infected in human MT4 cells assessed as inhibition of HIV-induced cytopathic effect measured after 5 days by MTT assay; assay type: functional, organism-based; conditions: Human immunodeficiency virus 2, ROD, MT4, 120 h
[10] = Cytotoxicity against human MT4 cells assessed as reduction in cell viability by MTT assay; assay type: toxicity, cell-based
[11] = Selectivity index, ratio of CC50 for cytotoxicity against human MT4 cells assessed as reduction in cell viability by MTT assay to EC50 for anti-HIV activity against wild type HIV-1 IIIB infected in human MT4 cells assessed as inhibition of HIV-induced cytopathic effect measured after 5 days by MTT assay; assay type: toxicity, cell-based; conditions: read-out: Ratio CC50/EC50
[12] = Selectivity index, ratio of CC50 for cytotoxicity against human MT4 cells assessed as reduction in cell viability by MTT assay to EC50 for anti-HIV activity against wild type HIV-2 ROD infected in human MT4 cells assessed as inhibition of HIV-induced cytopathic effect measured after 5 days by MTT assay; assay type: toxicity, cell-based; conditions: read-out: Ratio CC50/EC50
HepG2 2.2.15 [13] = experiment: Cytotoxicity against human HepG2.2.15 cells assessed as reduction in cell viability incubated for 1 to 4 hrs by MTS uptake assay; assay type: functional; conditions: time 1-4 hrs
Human betaherpesvirus 5 [14] = experiment: Antiviral activity against HCMV AD-169 infected in HFF cells assessed as reduction in viral replication measured after 14 days; assay type: functional, organism-based; conditions: Human betaherpesvirus 5, AD-169, HFF, 336 h; for EC90: time 14 day
[15] = Cytotoxicity against human HFF cells infected with HCMV AD-169 virus assessed as reduction in cell viability by cell titer-glo assay; assay type: toxicity, cell-based
[16] = Selectivity index, ratio of CC50 for cytotoxicity against human HFF cells infected with HCMV AD-169 virus assessed as reduction in cell viability by cell titer-glo assay to EC50 for antiviral activity against HCMV AD-169 infected in HFF cells assessed as inhibition of virus-induced cytopathic effect measured after 14 days; assay type: toxicity, cell-based; conditions: read-out: Ratio CC50/EC50
Human alphaherpesvirus 3 [17] = experiment: Antiviral activity against VZV Ellen infected in HFF cells assessed as reduction in viral replication measured after 14 days; assay type: functional, organism-based; conditions: Human alphaherpesvirus 3, Ellen, 336 h; for EC90: time 14 day
[18] = Cytotoxicity against human HFF cells infected with VZV Ellen virus assessed as reduction in cell viability by cell titer-glo assay; assay type: toxicity, cell-based
[19] = Selectivity index, ratio of CC50 for cytotoxicity against human HFF cells infected with VZV Ellen virus assessed as reduction in cell viability by cell titer-glo assay to EC50 for antiviral activity against VZV Ellen infected in HFF cells assessed as inhibition of virus-induced cytopathic effect measured after 14 days; assay type: toxicity, cell-based; conditions: read-out: Ratio CC50/EC50
HepG2 2.2.15 [20] = experiment: Cytotoxicity against human HepG2.2.15 cells assessed as reduction in cell viability by neutral red uptake assay; assay type: functional

| SMILES | pEC50 (Hepatitis B virus) | pEC50 (Human betaherpesvirus 5 [2]) | pEC50 (Human betaherpesvirus 5 [3]) | pEC50 (Human alphaherpesvirus 3 [4]) | pEC50 (Human alphaherpesvirus 3 [5]) | MCC at 72 h [6] [µM] | pEC50 [8] | pEC50 [9] | CC50 [10] [µM] | selectivity ratio at 120 h [11] | selectivity ratio at 120 h [12] | EC90 (Hepatitis B virus) [µM] | other results |
| --- | --- | --- | --- | --- | --- | --- | --- | --- | --- | --- | --- | --- | --- |
| C#C[C@](CO)(Cn1cnc2c(=O)[nH]c(N)nc21)OCP(=O)(O)O | 6.30 |  |  |  |  |  |  |  |  |  |  |  | CC50 (HepG2 2.2.15 [1]): > 100 µM |
| O=c1[nH]c(=O)n([C@H]2C[C@H](O)[C@@H](CO)O2)cc1/C=C/Br [BRIVUDINE] |  | 6.54 | 6.47 | 7.15 | 4.44 | > 300 |  |  |  |  |  |  | CC50 at 72 h [7]: > 300 µM |
| CC(CO)(Cn1cnc2c(N)ncnc21)OCP(=O)(O)O (racemic) | 6.09 | 3.94 | 3.50 | 4.51 | 4.43 | > 315 | < 3.45 | < 3.45 | > 352 | 1 | 1 | 21.8 | CC50 at 72 h [7]: 205 µM; CC50 (HepG2 2.2.15 [13]): > 100 µM |
| C#CC(CO)(Cn1ccc(=O)[nH]c1=O)OCP(=O)(O)O (racemic) | 4.68 |  |  |  |  |  | < 3.39 | < 3.39 | > 411 | 1 | 1 | 77 | pEC50 (Human betaherpesvirus 5 [14]): 3.82; EC90 (Human betaherpesvirus 5 [14]): > 150 µM; CC50 [15]: > 150 µM; selectivity ratio at 336 h [16]: 1; pEC50 (Human alphaherpesvirus 3 [17]): 4.69; EC90 (Human alphaherpesvirus 3 [17]): > 150 µM; CC50 [18]: > 150 µM; selectivity ratio at 336 h [19]: > 7; CC50 (HepG2 2.2.15 [20]): > 100 µM |
| Nc1nc2c(ncn2COCCO)c(=O)[nH]1 [ACYCLOVIR] |  | 5.64 | 5.68 |  |  | > 444 |  |  |  |  |  |  | CC50 at 72 h [7]: > 444 µM |
| C[C@](CO)(Cn1cnc2c(=O)[nH]c(N)nc21)OCP(=O)(O)O | 6.48 |  |  |  |  |  |  |  |  |  |  |  | CC50 (HepG2 2.2.15 [1]): > 100 µM |
| CC(CO)(Cn1ccc(=O)[nH]c1=O)OCP(=O)(O)O (racemic) | < 4.00 | 3.59 | 3.73 | 3.57 | 3.47 | > 340 | < 3.37 | < 3.37 | > 425 | 1 | 1 | > 100 | CC50 (HepG2 2.2.15 [13]): > 100 µM |
| Nc1nc2c(ncn2COC(CO)CO)c(=O)[nH]1 [GANCICLOVIR] |  |  |  |  |  |  |  |  |  |  |  |  | pEC50 (Human betaherpesvirus 5 [14]): 6.07; EC90 (Human betaherpesvirus 5 [14]): 74.2 µM; CC50 [15]: > 150 µM |
| C#CC(CO)(Cn1cnc2c(N)ncnc21)OCP(=O)(O)O (racemic) | 4.60 |  |  |  |  |  | 4.58 | 4.74 | > 382 | > 14 | > 21 | 62 | pEC50 (Human betaherpesvirus 5 [14]): 4.52; EC90 (Human betaherpesvirus 5 [14]): > 30 µM; CC50 [15]: 145 µM; selectivity ratio at 336 h [16]: < 5; pEC50 (Human alphaherpesvirus 3 [17]): < 4.52; EC90 (Human alphaherpesvirus 3 [17]): > 30 µM; CC50 [18]: 131 µM; selectivity ratio at 336 h [19]: < 4; CC50 (HepG2 2.2.15 [20]): > 100 µM |
| C#C[C@@](CO)(Cn1cnc2c(=O)[nH]c(N)nc21)OCP(=O)(N[C@@H](Cc1ccccc1)C(=O)OCCC)N[C@@H](Cc1ccccc1)C(=O)OCCC | 8.03 |  |  |  |  |  |  |  |  |  |  |  | CC50 (HepG2 2.2.15 [1]): > 100 µM |
| C#CC(CO)(Cn1ccc(N)nc1=O)OCP(=O)(O)O (racemic) | < 4.00 |  |  |  |  |  | < 3.38 | < 3.38 | > 412 | 1 | 1 | > 100 | pEC50 (Human betaherpesvirus 5 [14]): 4.52; EC90 (Human betaherpesvirus 5 [14]): > 30 µM; CC50 [15]: 132 µM; selectivity ratio at 336 h [16]: < 4; pEC50 (Human alphaherpesvirus 3 [17]): 4.81; EC90 (Human alphaherpesvirus 3 [17]): > 150 µM; CC50 [18]: > 150 µM; selectivity ratio at 336 h [19]: > 10; CC50 (HepG2 2.2.15 [20]): > 100 µM |
| C[C@@](CO)(Cn1cnc2c(=O)[nH]c(N)nc21)OCP(=O)(O)O | 7.37 |  |  |  |  |  |  |  |  |  |  |  | CC50 (HepG2 2.2.15 [1]): > 100 µM |
| CC(CO)(Cn1cnc2c(=O)[nH]c(N)nc21)OCP(=O)(O)O (racemic) | 6.85 | 5.27 | 5.27 | 5.62 | 5.44 | 300 | 4.49 | 4.38 | 228 | 7 | 5 | 38.1 | CC50 at 72 h [7]: 21.6 µM; CC50 (HepG2 2.2.15 [13]): > 100 µM |
| CC(CO)(Cn1ccc(N)nc1=O)OCP(=O)(O)O (racemic) | < 4.00 | 4.60 | 4.43 | 4.73 | 4.34 | > 341 | < 3.37 | < 3.37 | > 426 | 1 | 1 | > 100 | CC50 at 72 h [7]: > 341 µM; CC50 (HepG2 2.2.15 [13]): > 100 µM |
| C#C[C@@](CO)(Cn1cnc2c(=O)[nH]c(N)nc21)OCP(=O)(O)O | 7.73 |  |  |  |  |  |  |  |  |  |  |  | CC50 (HepG2 2.2.15 [1]): > 100 µM |
| Cc1cn(CC(C)(CO)OCP(=O)(O)O)c(=O)[nH]c1=O (racemic) | < 4.00 | < 3.49 | < 3.49 | < 3.49 | 3.60 | > 324 | < 3.39 | < 3.39 | > 406 | 1 | 1 | > 100 | CC50 (HepG2 2.2.15 [13]): > 100 µM |
| C#CC(CO)(Cn1cc(C)c(=O)[nH]c1=O)OCP(=O)(O)O (racemic) | < 4.00 |  |  |  |  |  | < 3.41 | < 3.41 | > 393 | 1 | 1 | > 100 | pEC50 (Human betaherpesvirus 5 [14]): 4.52; EC90 (Human betaherpesvirus 5 [14]): > 30 µM; CC50 [15]: 140 µM; selectivity ratio at 336 h [16]: < 5; pEC50 (Human alphaherpesvirus 3 [17]): 4.57; EC90 (Human alphaherpesvirus 3 [17]): > 30 µM; CC50 [18]: 139 µM; selectivity ratio at 336 h [19]: 5; CC50 (HepG2 2.2.15 [20]): > 100 µM |
